Laboratory results from patent publication US8524498B2, “Methods and compositions for homologous recombination in human cells” (The General Hospital Corporation, priority 2009, dated 2013).

Key:
[1] = test system: JAK-STAT signaling pathway; assay: LIF stimulation of hLR5 cells: JAK-STAT pathway activation (Western blot, STAT3 immunostaining, gene expression); type: cell-based, human
From the text: FIGS. 2A-2F: LIF-responsiveness of hLR5 cells. 2A Western blot analysis of STAT3 phosphorylation in two independent hLR5 clones, with or without LIF-stimulation as indicated; 2B Immunostaining of STAT3 subcellular localization in hLR5 cells before (top panel) or after (bottom panel) LIF stimulation. Note the translocation of STAT3 from the cytoplasm (top panel) to the nucleus (bottom panel). Cell nuclei were visualized with DAPI; 2C Gene expression analysis of downstream target genes of the JAK/STAT signaling pathway in three hLR5 clones as well as human ES cell lines and conventional human iPS cell lines; 2D Flow cytometry analysis of SSEA 1 surface marker on hLR5 cells upon LIF removal. Lines indicate (i) LIF control, (ii) LIF substitution with bFGF, and (iii) no added growth factor; 2E Colony morphology of the hLR5 cells before (top panel) and after LIF substitution with bFGF; 2F Flow cytometry analysis of SSEA1 cell surface marker expression on hLR5 cells in the presence of small molecule inhibitors of the JAK/STAT and MEK/ERK signaling pathways. hLR5 cells were maintained in hLR5 media for 1 week in the presence of inhibitors. Grey shaded area: Jak-inhibitor, lines: MEK inhibitors (PD9805, PD1 84352 and PD0325901, as indicated). A line indicating a control (i.e., lacking inhibitor) is also present. […]

hLR5 cells [2] = assay: Conversion of hLR5 cells into stable pluripotent LD-hiPS colonies; type: cell-based, human; details: for conversion frequency of hLR5 cells into LD-hiPS cells: LIF and MEK inhibitor PD98059 added during the conversion process, about 0.01% without; for increase in conversion frequency compared to FGF alone: LIF and PD98059 (50 μM) in combination; for hLR5 conversion rate: agent added alone to bFGF after doxycycline withdrawal, PD98059 50 μM; for enhancement of hLR5 conversion: titration curve of GSK3β inhibitor alone or in combination with LIF and/or PD98059, even at high concentration (not shown)
Procedure: FIG. 9: Conversion rate of hLR5 cells into LD-hi PS cells is influenced by growth factors and inhibition of MEK signaling. Bar graph indicates the average number of stable pluripotent LD-hiPS colonies obtained after plating of 100.000 hLR5 cells in the presence of the indicated combinations of growth factors and MEK inhibitor (PD98059, 50 μM).
FIG. 4A outlines the procedure of converting hLR5 cells into stable iPS cells. Clonal hLR5 cell lines were plated at a density of 5000 cells per cm^2 in media containing human LIF and doxycycline to support the continued expression of ectopic reprogramming factors. The next day, doxycycline was withdrawn from the hLR5 cultures and cells were further maintained in the presence of bFGF alone (FIG. 4A). […] These cells are referred to herein as hLR5-derived human iPS cells (LD-hiPS) to signify their prior hLR5 status. The conversion frequency of hLR5 cells into LD-hiPS cells was low, approximately 0.01%, yet similar to the conversion of murine metastable iPS cells of the NOD strain into stable EpiSC-like iPS cells (Hanna et al., 2009). […] Whether LIF and/or small molecule inhibitors could positively influence the conversion of hLR5 cells to a stable pluripotent state was analyzed.

[3] = test system: human pluripotent stem cells; assay: Culture of human pluripotent stem cells with pharmacological inhibitors: passaging, proliferation, colony morphology; type: cell-based; details: for colony morphology of human pluripotent stem cells (ES cells and iPS cells): CHIR99021 (3 μM) together with PD98059 (50 μM)
From the text: FIGS. 12A-12C: Inhibition of PKA or GSK3β signaling enhances human pluripotent stem cell proliferation rate and improves the introduction of transgenes by homologous recombination. 12A. Cell proliferation curve. Cell numbers of human iPS cells were counted at the indicated time intervals. Plotted is the cumulative cell number over 37 days of culture. All cells were maintained in standard human iPS culture conditions (e.g., Maherali et al. Cell Stem Cell 2008, 3:340-345) with indicated additions: DMSO ([…], 0.1%); CHIR99021 (GSK3β inhibitor, 3 μM), Kenpaullone (GSK3β inhibitor, 5 μM); BIO (GSK3β inhibitor, 15 μM) and SB216763 (GSK3β inhibitor, 1 μM). 12B Colony morphology of human pluripotent stem cells cultured in the presence of the GSK3β inhibitor (3 μM) and PD98059 (50 μM). 12C Influence of signaling inhibitors on the introduction of a 10 kb transgene construct carrying a puromycin selection cassette. Puromycin selection was applied at 0.25 μg/mL 48 hours after electroporation of human iPS cells with 20 μg of the linearized plasmid.
It was therefore sought to explore if small molecule inhibitors can affect human pluripotent stem cell colony morphology, proliferation and the ability to introduce transgenes using homologous recombination. Human pluripotent stem cells were maintained in standard medium (DMEM/F12 containing 20% knockout serum replacement, 2 mM L-Glutamine, 1% non-essential amino acids, 100 U of penicillin, 100 μg streptomycin, 0.1 mM beta-mercaptoethanol and 5 ng/mL bFGF, with or without pharmacological inhibitors.
The inhibition of GSK3β can increase the frequency of homologous recombination in both iPS cells derived in the presence of the five reprogramming factors as described above, and in human ES cells. The human ES cells acquired a mouse ES cell-like morphology, became capable of single cell expansion, and became capable of trypsin passaging when incubated with a GSK3β inhibitor. The effect and the increase in homologous recombination could be facilitated by co-addition of MEK inhibitor(s).

hLR5 cells [4] = assay: SSEA1 cell surface marker expression by flow cytometry on hLR5 cells cultured with pathway inhibitors; type: cell-based, human; details: flow cytometry after 1 week culture in hLR5 media with inhibitor; Jak-inhibitor I 0.6 μM, PD98059 50 μM, PD1 84352 0.8 μM, PD0325901 1 μM
From the text: FIGS. 2A-2F: LIF-responsiveness of hLR5 cells. 2A Western blot analysis of STAT3 phosphorylation in two independent hLR5 clones, with or without LIF-stimulation as indicated; 2B Immunostaining of STAT3 subcellular localization in hLR5 cells before (top panel) or after (bottom panel) LIF stimulation. Note the translocation of STAT3 from the cytoplasm (top panel) to the nucleus (bottom panel). Cell nuclei were visualized with DAPI; 2C Gene expression analysis of downstream target genes of the JAK/STAT signaling pathway in three hLR5 clones as well as human ES cell lines and conventional human iPS cell lines; 2D Flow cytometry analysis of SSEA 1 surface marker on hLR5 cells upon LIF removal. Lines indicate (i) LIF control, (ii) LIF substitution with bFGF, and (iii) no added growth factor; 2E Colony morphology of the hLR5 cells before (top panel) and after LIF substitution with bFGF; 2F Flow cytometry analysis of SSEA1 cell surface marker expression on hLR5 cells in the presence of small molecule inhibitors of the JAK/STAT and MEK/ERK signaling pathways. hLR5 cells were maintained in hLR5 media for 1 week in the presence of inhibitors. Grey shaded area: Jak-inhibitor, lines: MEK inhibitors (PD9805, PD1 84352 and PD0325901, as indicated). A line indicating a control (i.e., lacking inhibitor) is also present.
Upon removal or substitution of LIF from the hLR5 culture media, SSEA1 expression waned (FIG. 2D). In addition, a change in colony morphology was observed following LIF withdrawal (FIG. 2E). In murine ES cells, LIF activates the JAK/STAT3 and the RAS/MEK/MAPK signaling pathways, which have opposing roles in murine ES cell maintenance and differentiation. […] Specific inhibitors of JAK/STAT signaling or the MAPK/MEK signaling pathway were used to examine the relative role of these pathways in hLR5 cells. SSEA1 cell surface marker expression was examined by flow cytometry upon culture of hLR5 cells in the presence of specific inhibitors for 1 week.
Cells were collected by trypsinization and resuspended in ice-cold RPMI+0.5% FBS. Cells were incubated with the antibodies against the indicated surface antigens for 30 min at 4° C. The following antibodies were used for cell surface marker profiling: SSEA 1 (BD BIOSCIENCES™), TRA-1-81, TRA-1-60, SSEA3 and SSEA4 (MILLIPORE™). Cells were washed twice with RPMI/0.5% FBS and incubated with the relevant fluorophore-conjugated secondary antibody (BD BIOSCIENCES™) for 30 min at 4° C. Cells were washed twice with RPMI/0.5% FBS, resuspended in RPMI/0.5% FBS and analyzed on a BECTON-DICKINSON FACSCALIBUR™ cell analyzer.

LIF: human LIF growth factor activating JAK-STAT signaling
STAT3 nuclear translocation in hLR5 cells ([1]; 15 minute stimulation with human LIF, immunofluorescence): rapid STAT3 nuclear translocation
STAT3 phosphorylation in hLR5 cells ([1]; LIF stimulation, Western blot): robustly induces STAT3 phosphorylation
conversion frequency of hLR5 cells into LD-hiPS cells (hLR5 cells [2]): ~0.1%
increase in conversion frequency compared to FGF alone (hLR5 cells [2]): ~8 fold
hLR5 conversion rate (hLR5 cells [2]): slight increase

O=C1Cc2c([nH]c3ccc(Br)cc23)-c2ccccc2N1 [Kenpaullone]
enhancement of hLR5 conversion (hLR5 cells [2]): did not enhance hLR5 conversion

C[S+](C)[O-] [DMSO]
trypsin passaging of human pluripotent stem cells ([3]; standard medium with inhibitor, DMSO 0.1%): allowed trypsin passaging
pluripotent stem cell proliferation rate ([3]; standard medium with inhibitor, DMSO 0.1%, cumulative cell number over 37 days): enhanced the pluripotent stem cell proliferation rate

O=C(NOCC1CC1)c1ccc(F)c(F)c1Nc1ccc(I)cc1Cl [PD1 84352]
expression of SSEA1 on hLR5 cells (hLR5 cells [4]): did not affect cell surface marker expression

Jak-inhibitor I
expression of SSEA1 on hLR5 cells (hLR5 cells [4]): marked decrease

COc1cccc(-c2cc(=O)c3ccccc3o2)c1N [PD98059]
expression of SSEA1 on hLR5 cells (hLR5 cells [4]): did not affect cell surface marker expression
colony morphology of human pluripotent stem cells (ES cells and iPS cells) [3]: adopted the characteristic tight dome-shaped morphology of murine ES cells
conversion frequency of hLR5 cells into LD-hiPS cells (hLR5 cells [2]): ~0.1%
increase in conversion frequency compared to FGF alone (hLR5 cells [2]): ~8 fold
hLR5 conversion rate (hLR5 cells [2]): slight increase

Cc1c[nH]c(-c2cnc(NCCNc3ccc(C#N)cn3)nc2-c2ccc(Cl)cc2Cl)n1 [CHIR99021]
colony morphology of human pluripotent stem cells (ES cells and iPS cells) [3]: adopted the characteristic tight dome-shaped morphology of murine ES cells
enhancement of hLR5 conversion (hLR5 cells [2]): did not enhance hLR5 conversion

O=C(NOC[C@H](O)CO)c1ccc(F)c(F)c1Nc1ccc(I)cc1F [PD0325901]
expression of SSEA1 on hLR5 cells (hLR5 cells [4]): did not affect cell surface marker expression
